Results as given in PMC2984425, “Safety and pharmacokinetics of novel selective vascular endothelial growth factor receptor-2 inhibitor YN968D1 in patients with advanced malignancies” (BMC Cancer, 2010).
Where two headings read alike, the source gives them in different places.

What was measured:
VEGFR-2 = conditions: no reference given; read-out: IC50, inhibitory effect on VEGFR-2; cited from earlier work
[1] = test system: patients with advanced solid tumors; assay: Phase I dose escalation: MTD and DLT of oral once-daily apatinib; format: in vivo
Protocol: The phase I study was designed in accordance with the Chinese State Food and Drug Administration (SFDA) recommendations (Guidance for Industry, 2005). PK evaluations were to be performed for single-dosing and multiple-dosing of which the dose levels were determined after completion of dose-escalation. Three dose levels (low, intermediate and high dose) for single-dosing and one dose level (the recommended dose for phase II) for multiple-dosing study, between 8 to 12 participants for each dose levels, were required to meet the SFDA guidance. A cross-over design to evaluate the effects of food intake was incorporated into the single-dosing assessment, also meeting the SFDA requirement, but data will be presented separately.
Apatinib was provided by Advenchen Laboratories, LLC (Northridge, CA, USA) as capsule to be administered orally daily. A safe starting dose was determined in accordance with SFDA recommendations (Guidance for Industry 2005) following a previously established maximum-tolerated dose (MTD) in dogs for YN968D1 of above 30 mg/kg. Thus, in compliance with the SFDA's recommendation, the starting dose was determined to be 250 mg/day, corresponding to one-fourth of the MTD in dogs. (ClinicalTrials.gov number: NCT00633490).
Dose-escalation cohorts enrolled three to six patients. Intrapatient dose escalation was not allowed. […]

[2] = Plasma pharmacokinetics after single and multiple oral doses (LC-MS/MS, non-compartmental analysis); format: in vivo, human; conditions: for Cmax / half-life / AUC(0-t) / Tmax: human, plasma; for AUC(0-t): read-out: AUC0-24, geometric mean; for Tmax: read-out: tmax, median
Protocol: The phase I study was designed in accordance with the Chinese State Food and Drug Administration (SFDA) recommendations (Guidance for Industry, 2005). PK evaluations were to be performed for single-dosing and multiple-dosing of which the dose levels were determined after completion of dose-escalation. Three dose levels (low, intermediate and high dose) for single-dosing and one dose level (the recommended dose for phase II) for multiple-dosing study, between 8 to 12 participants for each dose levels, were required to meet the SFDA guidance. A cross-over design to evaluate the effects of food intake was incorporated into the single-dosing assessment, also meeting the SFDA requirement, but data will be presented separately. […] Whole blood samples (1 ml) were collected at 0 (predose), 0.5, 1, 2, 3, 4, 6, 8, 12, 24, 32, and 48 hours for single-dosing evaluation and 0, 0.5, 1, 2, 3, 4, 6, 8, 12, and 24 hours (before the next dose) on days 1, 6, 28, and 56 for multiple-dosing evaluation. After the last dose on day 56, two additional samples were collected at 32 and 48 hours for multiple-dosing assessment. Plasma was collected from the blood samples following centrifugation, and stored at -80°C until analysis. […] The PK parameters, including area under the plasma concentration-time curve (AUC), maximum plasma concentration (Cmax), time to maximum concentration (tmax), and elimination half-life (t1/2) were determined by non-compartmental analysis using InnaPhase Kinetica 2000™ (InnaPhase Corp., Philadelphia, PA, USA). The linear-logarithmic trapezoidal method was used to calculate the AUC, and t1/2 λz was calculated by linear regression of the terminal slope of the logarithmic plasma concentration-time profile.

xenograft = test system: xenograft; set-up: method as in ref 8 = [8]; Chen P Iruela-Arispe L Lou L Sun P Yuan K VEGFr inhibitor YN968D1 xenograft dose response studies against human colon cancer Ls174t and HT29 Proc Amer Assoc Cancer Res 2006 47 abst 1764; conditions: xenograft study; cited from earlier work
[3] = po, 500 mg, single oral dose 500 mg, n = 8
[4] = po, 750 mg, multiple oral dose of 750 mg, Day 1, n = 11
[5] = po, 750 mg, multiple oral dose of 750 mg, Day 6, n = 11
[6] = po, 750 mg, multiple oral dose of 750 mg, Day 28, n = 11
[7] = po, 750 mg, multiple oral dose of 750 mg, Day 56, n = 11
[8] = po, 750 mg, single oral dose 750 mg, n = 12
[9] = po, 850 mg, single oral dose 850 mg, n = 8

SMILES: N#CC1(c2ccc(NC(=O)c3cccnc3NCc3ccncc3)cc2)CCCC1 [apatinib]
- IC50 (VEGFR-2): 2.43 nM
- recommended (phase II) dose ([1]; human, in vivo, 4 weeks): 750 mg
- maximum tolerated dose (MTD) ([1]; oral, once daily, patients): 850 mg
- time to steady-state conditions ([2]; 750 mg once daily, multiple dosing): ≤ 6 days
- Cmax ([2]; oral, 750 mg, after a single dose of 750 mg, read-out: Cmax values, variation between patients): 926 to 4620 ng/mL
- half-life ([2]; oral, constant over the dose levels 500-850 mg, read-out: elimination half-life of the terminal phase (t1/2 λz) (converted)): 9 h
- AUC(0-t) [2, 3]: 11300 ng·h/mL
- Cmax ([2]; po, 500 mg, single oral dose 500 mg, n = 8, read-out: Cmax, geometric mean): 1520 ng/mL
- half-life ([2]; po, 500 mg, single oral dose 500 mg, n = 8, read-out: t1/2λz, mean (converted)): 8.1 h
- Tmax [2, 3]: 3.5 h
- AUC(0-t) [2, 4]: 19400 ng·h/mL
- Cmax ([2]; po, 750 mg, multiple oral dose of 750 mg, Day 1, n = 11, read-out: Cmax, geometric mean): 2420 ng/mL
- half-life ([2]; po, 750 mg, multiple oral dose of 750 mg, Day 1, n = 11, read-out: t1/2λz, mean (converted)): 8.9 h
- Tmax [2, 4]: 3 h
- AUC(0-t) [2, 5]: 25400 ng·h/mL
- Cmax ([2]; po, 750 mg, multiple oral dose of 750 mg, Day 6, n = 11, read-out: Cmax, geometric mean): 2550 ng/mL
- half-life ([2]; po, 750 mg, multiple oral dose of 750 mg, Day 6, n = 11, read-out: t1/2λz, mean (converted)): 11 h
- Tmax [2, 5]: 4 h
- AUC(0-t) [2, 6]: 19900 ng·h/mL
- Cmax ([2]; po, 750 mg, multiple oral dose of 750 mg, Day 28, n = 11, read-out: Cmax, geometric mean): 2210 ng/mL
- half-life ([2]; po, 750 mg, multiple oral dose of 750 mg, Day 28, n = 11, read-out: t1/2λz, mean (converted)): 11.3 h
- Tmax [2, 6]: 4 h
- AUC(0-t) [2, 7]: 15600 ng·h/mL
- Cmax ([2]; po, 750 mg, multiple oral dose of 750 mg, Day 56, n = 11, read-out: Cmax, geometric mean): 1850 ng/mL
- half-life ([2]; po, 750 mg, multiple oral dose of 750 mg, Day 56, n = 11, read-out: t1/2λz, mean (converted)): 8.3 h
- Tmax [2, 7]: 3 h
- AUC(0-t) [2, 8]: 18200 ng·h/mL
- Cmax ([2]; po, 750 mg, single oral dose 750 mg, n = 12, read-out: Cmax, geometric mean): 2380 ng/mL
- half-life ([2]; po, 750 mg, single oral dose 750 mg, n = 12, read-out: t1/2λz, mean (converted)): 9 h
- Tmax [2, 8]: 3 h
- AUC(0-t) [2, 9]: 22000 ng·h/mL
- Cmax ([2]; po, 850 mg, single oral dose 850 mg, n = 8, read-out: Cmax, geometric mean): 2830 ng/mL
- half-life ([2]; po, 850 mg, single oral dose 850 mg, n = 8, read-out: t1/2λz, mean (converted)): 9.1 h
- Tmax [2, 9]: 4 h
- in vivo efficacy compared to valatinib (xenograft): superior in vivo efficacy
